Source: patent US20090137580A1, “Fused Heterocyclic Derivatives and Use Thereof” (Takeda Pharmaceutical Company Limited, priority 2005, published 2009)

Tests used:
[1] = target: T1, VEGF Receptor 2 Kinase (VEGFR2) (Homo sapiens, UniProt P35968); assay: Determination of VEGF receptor 2 kinase (VEGFR2) inhibitory activity (alpha screen); assay type: biochemical; conditions: VEGFR2 intracellular domain protein, 25 μM ATP buffer, read-out: inhibitory rate (kinase inhibitory rate of VEGFR2)
T1 construct: made in house; host or cells: SF-21 insect cells, recombinant baculovirus BAC-VEGFR2 (pFASTBAC1)
Method: For cloning of human VEGF receptor 2 (hereinafter to be abbreviated as VEGFR2) gene, PCR was performed using cDNA Libraries Human Placenta (Clontech) as a template. The primer used for PCR was prepared by, based on the information of the base sequence (Genbank Accession AF035121) of VEGFR2 gene, adding a base sequence encoding the flag peptide and a restriction enzyme recognition sequence to the base sequence (2671-4374 of Genbank Accession AF035121) encoding the VEGFR2 intracellular domain, so that a flag tag would be added to the N terminal of the protein. The primer base sequence is shown in the following.
PCR reaction was carried out using a KOD-plus kit (TOYOBO). The obtained PCR product was electrophoresed on an agarose gel (1%), and a DNA fragment amplified by PCR was recovered from the gel and digested with restriction enzymes Sal I and Sph I. The DNA after the restriction enzyme treatment was electrophoresed on an agarose gel (1%), and the obtained DNA fragment was recovered and ligated to the plasmid pFASTBAC1 (Invitrogen) digested with restriction enzymes Sal I and Sph I to give an expression plasmid pFB-VEGFR2. The base sequence of the inserted fragment was confirmed to have matched with the base sequence (2671-4374 of Genbank Accession AF035121) of the VEGFR2 intracellular domain. Furthermore, virus stock BAC-VEGFR2 of the recombinant Baculovirus was prepared using BAC-TO-BAC Baculovirus Expression System (Invitrogen).
SF-21 cells were inoculated into 1 L of Sf-900IISFM medium (Invitrogen) containing 10% fetal calf serum (trace), 50 mg/L Gentamicin (Invitrogen) and 0.1% Pluronic F-68 (Invitrogen) at 1×10^6 cells/ml, and shake culture was performed using a 2 L Erlenmeyer flask at 27° C., 100 rpm. After 24 hr of culture, recombinant Baculovirus BAC-VEGFR2 (13.4 mL) was added, and the culture was continued for 3 days. The culture medium was centrifuged at 2,000 rpm for 5 min to give virus-infected cells. The infected cells were washed with phosphate buffered saline (Invitrogen), centrifuged under the same conditions, and preserved at −80° C. The cryopreserved cells were thawed in ice, suspended in 30 mL of buffer A (Tris buffer, pH 7.4, containing 20% glycerol and 0.15M NaCl (50 mM)) supplemented with Complete Protease Inhibitor (Boehringer), and disrupted three times using a polytron homogenizer (Kinematica) at 20,000 rpm, 30 sec. The disrupt was clarified by centrifugation at 40,000 rpm, 30 min and filtered through a 0.45 μm filter. The filtrate was passed through a column packed with Anti-FLAG M2 Affinity Gel (Sigma Ltd., 4 mL) at a flow rate of about 0.5 mL/min. The column was washed with buffer A and eluted with buffer A containing 100 μg/mL FLAG peptide. The eluate was concentrated by Vivaspin 20 (Viva Science) having a fraction molecular weight of 30K. The concentrate was applied to NAP™ 25 column (Amersham Biosciences) equilibrated with buffer A for buffer exchange. The fractions containing the VEGFR2 intracellular domain protein were collected, glycerol was added to the final concentration of 50% and the fractions cryopreserved at ˜80° C.
The test compound dissolved in dimethyl sulfoxide (DMSO) was diluted with a buffer (50 mM Tris-HCl, pH 7.5, 5 mM MgCl2, 5 mM MnCl2, 2 mM dithiothreitol, 0.01% Tween-20). A buffer (10 μl) containing 50 ng/ml VEGFR2 intracellular domain protein and 250 ng/ml biotin-labeled polypeptide biotinyl-poly-Glu:Tyr (4:1) (CIS Bio International) was added to the compound solution (5 μl). A buffer (10 μl) containing 25 μM ATP was added to the obtained mixture, the mixture was allowed to react at 25° C. for 5 min. Then, 25 μl of a stop solution (100 mM EDTA·2 sodium salt, 62.5 mM HEPES buffer (pH 7.4), 250 mM NaCl, 0.1% bovine serum albumin, 10 μg/ml Streptavidin Donor beads: PerkinElmer for alpha screen assay, 10 μg/ml Anti-phosphotyrosine (P-Tyr-100) Acceptor beads: PerkinElmer for alpha screen assay) was added to quench the reaction. […]

[2] = target: T2, PDGFR Alpha Receptor Kinase (PDGFRalpha) (Homo sapiens, UniProt P16234); assay: Determination of PDGFR alpha receptor kinase (PDGFRalpha) inhibitory activity (alpha screen); assay type: biochemical; conditions: PDGFRalpha intracellular domain protein, 25 μM ATP buffer; read-out: IC50 value (PDGFRalpha kinase inhibition)
T2 construct: PDGFRalpha intracellular domain protein (UPSTATE); purchased UPSTATE
Method: The test compound dissolved in dimethyl sulfoxide (DMSO) was diluted with a buffer (50 mM Tris-HCl, pH 7.5, 5 mM MgCl2, 5 mM MnCl2, 2 mM dithiothreitol, 0.01% Tween-20).
Acceptor beads: PerkinElmer for alpha screen assay) was added to quench the reaction. The reaction solution was stood at 25° C. for 16 hr, and the count was measured using a plate reader·Fusion™ (manufactured by PerkinElmer). The kinase inhibitory rate (%) of the test compound was calculated by the following formula.
(§1) Inhibitory rate(%)=(1−(count of test compound−blank)÷(control−blank))×100
(§2) wherein the count of the solution reacted without addition of the compound is “control” and the count of the solution without addition of the compound and ATP is “blank”.

[3] = system: Human umbilical vein endothelial cells (HUVEC); assay: Vascular endothelial cell growth inhibitory test; assay type: cell-based; conditions: Homo sapiens, 120 h, VEGF 120 ng/mL, culture 5 days, XTT reagent
Method: Human umbilical vein endothelial cells (HUVEC, purchased from KURABO) were cultured in a gas incubator (37° C., CO2 5%) in a vascular endothelial cell medium (Invitrogen) containing 5% fetal calf serum and a basic fibroblast growth factor (2.5 ng/mL). To be specific, HUVEC suspended in the aforementioned vascular endothelial cell medium (Invitrogen) containing 5% fetal calf serum were seeded into a 96 well flat-bottom plate (50 μL, 3000 cells each well). After culturing overnight, various concentrations of test substance and the final concentration (120 ng/mL) of vascular endothelial growth factor (VEGF) were dissolved in a vascular endothelial cell medium (Invitrogen) containing 5% fetal calf serum and added to each well (50 μL). After culturing for 5 days, an XTT reagent (Wako Pure Chemical Industries, Ltd.) was added to each well (10 μL), and reacted in a gas incubator (37° C., CO2 5%) for 2-3 hr. The absorbance at 450 nm was measured by a microtiter plate reader, and the cell growth inhibitory activity was determined.

[4] = target: T3, PDGFRbeta Receptor Kinase (PDGFRbeta) (Homo sapiens, UniProt P09619); assay: Determination of PDGFRbeta receptor kinase (PDGFRbeta) inhibitory activity (alpha screen); assay type: biochemical; conditions: PDGFRbeta intracellular domain protein, 25 μM ATP buffer; read-out: IC50 value (PDGFRbeta kinase inhibition)
T3 construct: PDGFRbeta intracellular domain protein (UPSTATE); purchased UPSTATE
Method: (§3) The test compound dissolved in dimethyl sulfoxide (DMSO) was diluted with a buffer (50 mM Tris-HCl, pH 7.5, 5 mM MgCl2, 5 mM MnCl2, 2 mM dithiothreitol, 0.01% Tween-20). A buffer (10 μl) containing 125 ng/ml PDGFRbeta intracellular domain protein (UPSTATE) and 250 ng/ml biotin-labeled polypeptide biotinyl-poly-Glu:Tyr (4:1) (CIS Bio International) was added to the compound solution (5 μl). At 5 min after mixing a kinase enzyme, the compound and a biotin-labeled polypeptide, a buffer (10 μl) containing 25 μM ATP was added to the obtained mixture, the mixture was allowed to react at 25° C. for 30 min. Then, 25 μl of a stop solution (100 mM EDTA·2 sodium salt, 62.5 mM HEPES buffer (pH 7.4), 250 mM NaCl, 0.1% bovine serum albumin, 10 μg/ml Streptavidin Donor beads: PerkinElmer for alpha screen assay, 10 μg/ml Anti-phosphotyrosine (P-Tyr-66) Acceptor beads: PerkinElmer for alpha screen assay) was added to quench the reaction. The reaction solution was stood at 25° C. for 16 hr, and the count was measured using a plate reader·Fusion™ (manufactured by PerkinElmer). The kinase inhibitory rate (%) of the test compound was calculated by the following formula.
as §1, §2

[5] = target: T4, TIE2 Receptor Kinase (TIE2) (Homo sapiens, UniProt Q02763); assay: Determination of TIE2 receptor kinase (TIE2) inhibitory activity (alpha screen); assay type: biochemical; conditions: TIE2 intracellular domain protein, 5 μM ATP buffer; read-out: IC50 value (TIE2 kinase inhibition)
T4 construct: TIE2 intracellular domain protein (UPSTATE); purchased UPSTATE
Method: as §3, with “containing 50” for “containing 125”, “ng/ml TIE2” for “ng/ml PDGFRbeta”, “containing 5” for “containing 25”, “for 10” for “for 30”
as §1, §2
Prism (Graphpad Software) according to the nonlinear-regression sigmoidal dose-response (variable slope) analysis method.

T2 sequence (P16234 550-1089 limits assumed): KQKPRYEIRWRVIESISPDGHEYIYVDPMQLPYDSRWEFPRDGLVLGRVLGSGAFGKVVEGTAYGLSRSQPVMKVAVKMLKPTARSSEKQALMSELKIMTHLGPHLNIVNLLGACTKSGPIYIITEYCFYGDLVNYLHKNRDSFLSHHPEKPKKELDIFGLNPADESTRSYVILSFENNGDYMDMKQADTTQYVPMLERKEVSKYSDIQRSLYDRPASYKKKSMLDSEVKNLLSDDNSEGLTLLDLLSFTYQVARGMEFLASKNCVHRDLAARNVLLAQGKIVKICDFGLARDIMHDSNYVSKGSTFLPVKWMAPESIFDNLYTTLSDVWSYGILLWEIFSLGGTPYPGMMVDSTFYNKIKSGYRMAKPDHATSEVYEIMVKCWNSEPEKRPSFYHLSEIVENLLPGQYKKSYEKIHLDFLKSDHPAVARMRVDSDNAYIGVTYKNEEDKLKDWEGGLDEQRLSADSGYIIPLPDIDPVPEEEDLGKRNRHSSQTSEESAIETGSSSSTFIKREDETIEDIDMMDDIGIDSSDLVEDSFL
T3 sequence (P09619 554-1106 limits assumed): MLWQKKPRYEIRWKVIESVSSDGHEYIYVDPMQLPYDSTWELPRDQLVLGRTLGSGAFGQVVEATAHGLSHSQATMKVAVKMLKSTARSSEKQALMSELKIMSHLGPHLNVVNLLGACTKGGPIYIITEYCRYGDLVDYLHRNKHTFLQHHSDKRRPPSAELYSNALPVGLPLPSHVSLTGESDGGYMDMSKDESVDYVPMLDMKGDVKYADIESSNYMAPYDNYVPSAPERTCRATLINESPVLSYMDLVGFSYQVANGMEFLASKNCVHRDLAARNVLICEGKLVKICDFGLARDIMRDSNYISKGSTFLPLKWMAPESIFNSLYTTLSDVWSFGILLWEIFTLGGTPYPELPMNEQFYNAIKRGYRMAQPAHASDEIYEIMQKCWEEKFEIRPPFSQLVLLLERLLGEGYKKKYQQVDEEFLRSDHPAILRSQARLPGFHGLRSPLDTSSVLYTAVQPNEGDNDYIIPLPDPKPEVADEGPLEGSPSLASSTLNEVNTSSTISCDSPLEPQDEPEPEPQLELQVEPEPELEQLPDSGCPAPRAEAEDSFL
T1 sequence (P35968 786-1356 limits assumed): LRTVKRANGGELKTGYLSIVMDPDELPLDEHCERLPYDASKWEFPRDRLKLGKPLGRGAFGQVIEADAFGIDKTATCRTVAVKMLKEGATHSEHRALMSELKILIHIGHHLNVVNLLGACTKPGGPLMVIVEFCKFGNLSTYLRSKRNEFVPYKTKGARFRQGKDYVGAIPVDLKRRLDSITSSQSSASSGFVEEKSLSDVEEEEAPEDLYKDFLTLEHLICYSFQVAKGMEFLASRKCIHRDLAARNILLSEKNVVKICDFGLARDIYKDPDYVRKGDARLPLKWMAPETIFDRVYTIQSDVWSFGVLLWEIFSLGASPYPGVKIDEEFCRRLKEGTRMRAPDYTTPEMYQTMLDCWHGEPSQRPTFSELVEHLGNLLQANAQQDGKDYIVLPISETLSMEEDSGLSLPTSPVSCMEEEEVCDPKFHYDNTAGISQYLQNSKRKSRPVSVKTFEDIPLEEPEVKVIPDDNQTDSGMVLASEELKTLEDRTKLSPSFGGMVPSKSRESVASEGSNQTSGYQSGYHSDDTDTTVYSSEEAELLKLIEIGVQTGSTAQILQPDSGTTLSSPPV
T4 sequence (Q02763 770-1124 limits assumed): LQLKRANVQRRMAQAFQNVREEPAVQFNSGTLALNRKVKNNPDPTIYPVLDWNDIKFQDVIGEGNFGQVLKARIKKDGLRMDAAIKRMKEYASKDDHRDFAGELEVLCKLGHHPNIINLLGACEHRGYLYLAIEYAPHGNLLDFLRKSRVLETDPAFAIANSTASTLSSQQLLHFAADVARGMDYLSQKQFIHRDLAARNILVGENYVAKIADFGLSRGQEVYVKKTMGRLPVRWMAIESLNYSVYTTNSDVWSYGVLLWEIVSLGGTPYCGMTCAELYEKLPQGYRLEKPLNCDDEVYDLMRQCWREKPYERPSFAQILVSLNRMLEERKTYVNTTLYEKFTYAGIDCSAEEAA

inhibition at 1 µM [1]	IC50 [2]	IC50 [4]	IC50 [5]	SMILES	IC50 [3]
≥ 90%	≤ 500 nM	≤ 500 nM		Cn1ccc2ncnc(Oc3ccc(NC(=O)Nc4cccc(Cl)c4)cc3)c21 [Example 4, N-(3-chlorophenyl)-N′-{4-[(5-methyl-5H-pyrrolo[3,2-d]pyrimidin-4-yl)oxy]phenyl}urea]	91 nM
≥ 90%	≤ 500 nM	≤ 500 nM		Cc1cccc(NC(=O)Nc2ccc(Oc3ncnc4ccn(C)c34)cc2)c1 [Example 18, N-(3-methylphenyl)-N′-{4-[(5-methyl-5H-pyrrolo[3,2-d]pyrimidin-4-yl)oxy]phenyl}urea]	53 nM
≥ 90%	≤ 500 nM	≤ 500 nM	≤ 5 nM	COc1cc(Oc2ncnc3ccn(C)c23)ccc1NC(=O)Nc1cccc(C(F)(F)F)c1 [Example 77, N-{2-methoxy-4-[(5-methyl-5H-pyrrolo[3,2-d]pyrimidin-4-yl)oxy]phenyl}-N′-[3-(trifluoromethyl)phenyl]urea]	
